Measurements from ChEMBL document CHEMBL3856198, “Synthesis of novel 17-(4'-formyl)pyrazolylandrosta-5,16-dienes and their derivatives as potent 17α-hydroxylase/C17,20-lyase inhibitors or antiproliferative agents depending on the substitution pattern of the heteroring” (Eur J Med Chem, 2016).

What was measured:
Assay type in all cases: functional
[1] = Growth inhibition of human T47D cells at 30 uM after 72 hrs by MTT assay; details: read-out: GI
[2] = Growth inhibition of human T47D cells at 10 uM after 72 hrs by MTT assay; details: read-out: GI
[3] = Growth inhibition of human MDA-MB-361 cells at 30 uM after 72 hrs by MTT assay; details: MDA-MB-361, 72 h, read-out: GI
[4] = Growth inhibition of human MDA-MB-361 cells at 10 uM after 72 hrs by MTT assay; details: MDA-MB-361, 72 h, read-out: GI
[5] = Growth inhibition of human MCF7 cells at 10 uM after 72 hrs by MTT assay; details: MCF7, 72 h, read-out: GI
[6] = Growth inhibition of human MDA-MB-231 cells at 10 uM after 72 hrs by MTT assay; details: MDA-MB-231, 72 h, read-out: GI
[7] = Growth inhibition of human MDA-MB-231 cells at 30 uM after 72 hrs by MTT assay; details: MDA-MB-231, 72 h, read-out: GI
[8] = Growth inhibition of human MCF7 cells at 30 uM after 72 hrs by MTT assay; details: MCF7, 72 h, read-out: GI

Row | Compound | inhibition of growth at 30 µM [1] | inhibition of growth at 10 µM [2] | inhibition of growth at 30 µM [3] | inhibition of growth at 10 µM [4] | inhibition of growth at 10 µM [5] | inhibition of growth at 10 µM [6] | inhibition of growth at 30 µM [7] | inhibition of growth at 30 µM [8]
1 | CC(=O)O[C@H]1CC[C@@]2(C)C(=CC[C@@H]3[C@@H]2CC[C@]2(C)C(c4nn(-c5ccc(C)cc5)cc4C=O)=CC[C@@H]32)C1 | 50.8% | 37.2% | 34.9% | < 20% | 24.6% | < 20% | 27.2% | 44.4%
2 | CC(=O)O[C@H]1CC[C@@]2(C)C(=CC[C@@H]3[C@@H]2CC[C@]2(C)C(c4nn(-c5ccc(Cl)cc5)cc4C=O)=CC[C@@H]32)C1 | 62.8% | 44.8% | 63.7% | 32.1% | 43.6% | < 20% | 56.2% | 65.2%
3 | C[C@]12CC[C@H](O)CC1=CC[C@@H]1[C@@H]2CC[C@]2(C)C(c3nn(-c4ccc([N+](=O)[O-])cc4)cc3C=O)=CC[C@@H]12 | 79.6% | 72.5% | 80% | 63.9% | 64.8% | 51.8% | 77% | 75.1%
4 | Cc1ccc(-n2cc(CO)c(C3=CC[C@H]4[C@@H]5CC=C6C[C@@H](O)CC[C@]6(C)[C@H]5CC[C@]34C)n2)cc1 | 90.7% | 68.7% | 89.4% | 73.5% | 64.8% | 72.4% | 96.6% | 83.3%
5 | Cn1cc(C#N)c(C2=CC[C@H]3[C@@H]4CC=C5C[C@@H](O)CC[C@]5(C)[C@H]4CC[C@]23C)n1 | 29.6% | < 20% | 32.5% | < 20% | < 20% | < 20% | 32.6% | 40.9%
6 | Cc1ccc(-n2cc(C=O)c(C3=CC[C@H]4[C@@H]5CC=C6C[C@@H](O)CC[C@]6(C)[C@H]5CC[C@]34C)n2)cc1 | 74.8% | 47.2% | 75.8% | 57.3% | 47.8% | 58.9% | 76.9% | 72.6%
7 | CC(=O)O[C@H]1CC[C@@]2(C)C(=CC[C@@H]3[C@@H]2CC[C@]2(C)C(c4nn(-c5ccccc5)cc4C=O)=CC[C@@H]32)C1 | 79.9% | 31.4% | 76.9% | 52.8% | 57.1% | 37.9% | 71.5% | 86.3%
8 | C[C@]12CC[C@H](O)CC1=CC[C@@H]1[C@@H]2CC[C@]2(C)C(c3nn(-c4ccc(Br)cc4)cc3C=O)=CC[C@@H]12 | 70.7% | 36.2% | 60.4% | 48.1% | 22.2% | < 20% | 55.8% | 61%
9 | C[C@]12CC[C@H](O)CC1=CC[C@@H]1[C@@H]2CC[C@]2(C)C(c3nn(-c4ccc(C#N)cc4)cc3C=O)=CC[C@@H]12 | 86.4% | 66.9% | 74.3% | 60.8% | 64.4% | 49.1% | 93.1% | 80.2%
10 | Cn1cc(CO)c(C2=CC[C@H]3[C@@H]4CC=C5C[C@@H](O)CC[C@]5(C)[C@H]4CC[C@]23C)n1 | 56.4% | 37.4% | 47.1% | 32.5% | < 20% | < 20% | 43.6% | 33.8%
11 | Cn1cc(C=O)c(C2=CC[C@H]3[C@@H]4CC=C5C[C@@H](O)CC[C@]5(C)[C@H]4CC[C@]23C)n1 | 70.4% | 62% | 70% | 62.1% | 42.2% | 86.8% | 93.4% | 48.6%
